Here are results for 7 compounds from patent US5770687A, “Comformationally constrained backbone cyclized somatostatin analogs” (Peptor Limited, priority 1996, dated 1998).

Like-named read-outs stand apart in the source and are kept apart here. Peptide text beside a SMILES is read from it. Bounds are passed on as bounds.

The target in data set [1] is T1, rat SSTR-5 (Rattus norvegicus, UniProt P30938).
T1 sequence (P30938 1-363): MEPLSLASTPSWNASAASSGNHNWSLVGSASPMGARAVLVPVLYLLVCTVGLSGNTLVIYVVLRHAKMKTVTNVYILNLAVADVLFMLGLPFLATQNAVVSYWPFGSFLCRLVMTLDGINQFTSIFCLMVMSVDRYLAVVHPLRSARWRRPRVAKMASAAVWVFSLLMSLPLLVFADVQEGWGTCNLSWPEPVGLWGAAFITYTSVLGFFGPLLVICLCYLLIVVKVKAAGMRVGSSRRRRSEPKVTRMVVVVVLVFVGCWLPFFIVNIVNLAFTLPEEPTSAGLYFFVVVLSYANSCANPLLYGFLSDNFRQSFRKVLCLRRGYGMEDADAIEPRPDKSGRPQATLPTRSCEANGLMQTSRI
The data set is described as follows: Radioligand binding, inhibition of 125I-Tyr11-SRIF binding to cloned rat SSTR-5. As to the method: (§1) The somatostatin analogs were tested for their potency in inhibition of the binding of ^125 I-Tyr^11 -SRIF (based on the method described by Raynor et. al., Molecular Pharmacology 43, 838-844, 1993) to membrane preparations expressing the transmembranal somatostatin receptors (SSTR-1,2,3,4 or 5). The receptor preparations used for these tests were either from the cloned receptors selectively and stably expressed in Chinese Hamster Ovary (CHO) cells or from cell lines naturally expressing the SSTRs. […] The binding reactions were filtered, the filters were washed and the bound radioactivity was counted in gamma counter. […] In order to validate positive signals of the binding tests, and to eliminate non-specific signals, samples of irrelevant peptides, such as GnRH, that were synthesized and handled using the same procedures, were tested in the same assays as negative control samples.

Another data set is described as follows: Lack of toxicity in rats. Type of data set: in vivo, rat. Particulars: for respiratory disturbances, stereotyped behavior, muscle tone: rats observed for 4 hours post administration. As for the experimental part: PTR 3013 was not toxic to the rats even with doses of 4 mg/kg. These two doses are several orders of magnitude higher than those needed to elicit the desired endocrine effect. The peptides dissolved in saline produced no untoward side effects on the central nervous system, cardiovascular system, body temperature, nor on the periphery of the animals.

For the next data set, the target named is SSTR-3 (Homo sapiens, UniProt P32745). The data set is described as follows: Radioligand binding, inhibition of 125I-Tyr11-SRIF binding to cloned SSTR-3. As for the experimental part: as §1
Chain of SSTR-3 (P32745 whole entry, species assumed): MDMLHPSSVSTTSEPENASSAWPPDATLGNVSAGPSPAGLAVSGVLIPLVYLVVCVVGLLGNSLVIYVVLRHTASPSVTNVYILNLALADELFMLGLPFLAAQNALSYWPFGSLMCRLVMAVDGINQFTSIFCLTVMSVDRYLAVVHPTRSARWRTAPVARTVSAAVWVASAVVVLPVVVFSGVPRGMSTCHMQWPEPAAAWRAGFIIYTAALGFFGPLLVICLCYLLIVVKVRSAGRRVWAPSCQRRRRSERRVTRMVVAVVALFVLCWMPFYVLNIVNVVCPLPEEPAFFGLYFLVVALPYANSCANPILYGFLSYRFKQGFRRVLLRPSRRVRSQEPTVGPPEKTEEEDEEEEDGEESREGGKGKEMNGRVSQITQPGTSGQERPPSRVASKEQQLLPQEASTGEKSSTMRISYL
In the next data set the target is SSTR-2. The data set is described as follows: Radioligand binding, inhibition of 125I-Tyr11-SRIF binding to cloned SSTR-2. Particulars: Table 21; inhibition of iodinated SRIF-14 binding, CHO cells; tested at 10^-6, 10^-7, 10^-8 M; read-out: IC50 SSTR-2. As for the experimental part:
as §1

In data set [2] the target is T1, rat SSTR-5. The note with it: Table 22; known SST analogs, literature values; read-out: IC50 value rSSTR 5; cited from earlier work.
A short description of data set [3]: In vitro biostability in human serum (HPLC). The format is in vitro ADME. Particulars: 37° C. As to the method: Analogs are tested for stability by their resistance to enzymatic degradation by incubation in serum or in tissue homogenate, separation of the proteins and recording of the peptide peaks by HPLC before and after incubation. […] These peaks are separated and characterized by mass spectrometry, N-terminal sequence and comparison to purified peptide peaks.
The assay was based on HPLC determination of peptide degradation as a function of time in serum at 37° C.

Consider `C[C@@H](O)[C@H](NC(=O)CN1CCCNC(=O)CCN(C(=O)[C@H](N)Cc2ccccc2)CC(=O)N[C@@H](Cc2ccccc2)C(=O)N[C@H](Cc2c[nH]c3ccccc23)C(=O)N[C@@H](CCCCN)C(=O)N[C@@H]([C@@H](C)O)C1=O)C(N)=O` [PTR 3007] (HELM PEPTIDE1{[dF].[O=C(CN(CCC(=O)[*:3])[*:1])[*:2]].F.[dW].K.T.[O=C(CN(CCCN[*:3])[*:1])[*:2]].T.[am]}$PEPTIDE1,PEPTIDE1,2:R3-7:R3$$$V2.0), for which the IC50 (usually the midpoint of a concentration-inhibition curve) on rat SSTR-5 [1] is more than 2000 nM; at SSTR-3, more than 10000 nM. Also, the “respiratory disturbances, stereotyped behavior, muscle tone” value in “Lack of toxicity in rats” is given as “no respiratory disturbances”. `CC(=O)N1CCCNC(=O)CCN(CC(=O)N[C@@H](Cc2ccccc2)C(=O)N[C@H](C(N)=O)[C@@H](C)O)C(=O)[C@H](CCCCN)NC(=O)[C@@H](Cc2c[nH]c3ccccc23)NC(=O)[C@H](Cc2ccccc2)NC(=O)C1` [PTR 3013] (HELM PEPTIDE1{[ac].[O=C(CN(CCCN[*:3])[*:1])[*:2]].F.[dW].K.[O=C(CN(CCC(=O)[*:3])[*:1])[*:2]].F.T.[am]}$PEPTIDE1,PEPTIDE1,2:R3-6:R3$$$V2.0): the IC50 on SSTR-2 is more than 10000 nM. Besides, the “respiratory disturbances, stereotyped behavior, muscle tone” value in the data set “Lack of toxicity in rats” is on record as “no respiratory disturbances”. Further, the toxicity entry in the data set “Lack of toxicity in rats” (rats, doses of 4 mg/kg) is on record as “not toxic”. On to `C[C@@H](O)[C@@H]1NC(=O)[C@H](CCCCN)NC(=O)[C@@H](Cc2c[nH]c3ccccc23)NC(=O)[C@H](Cc2ccccc2)NC(=O)[C@@H](NC(=O)[C@H](N)Cc2ccccc2)CSSC[C@@H](C(=O)N[C@H](CO)[C@@H](C)O)NC1=O` [Octreotide, DPhe^5 -cyclo(Cys^6 -Phe^7 -DTrp^5 -Lys^9 -Thr^10 -Cys^11)-Thr^12 -ol], for which the IC50 at rat SSTR-5 [2] was 0.2 nM.

In the case of “DPhe^5 -cyclo(Cys^6 -Tyr^7 -DTrp^8 -Lys^9 -Val^10 -Cys^11)-Trp^12 -NH2 [RC-160]”, the IC50 on rat SSTR-5 [2] was 0.2 nM. `C[C@@H](O)[C@H](NC(=O)CN1CCCNC(=O)CN(C(=O)[C@H](N)Cc2ccccc2)CC(=O)N[C@@H](Cc2ccccc2)C(=O)N[C@H](Cc2c[nH]c3ccccc23)C(=O)N[C@@H](CCCCN)C(=O)N[C@@H]([C@@H](C)O)C1=O)C(N)=O` [PTR 3004]: the IC50 at rat SSTR-5 [1] is more than 2000 nM; on SSTR-3 it was more than 10000 nM. Consider `C[C@@H](O)[C@H](NC(=O)[C@H](Cc1ccccc1)NC(=O)CN1CCNC(=O)CCN(C(=O)[C@H](N)Cc2ccccc2)CC(=O)N[C@@H](Cc2ccccc2)C(=O)N[C@H](Cc2c[nH]c3ccccc23)C(=O)N[C@@H](CCCCN)C1=O)C(N)=O` [PTR 3019] (HELM PEPTIDE1{[dF].[O=C(CN(CCC(=O)[*:3])[*:1])[*:2]].F.[dW].K.[O=C(CN(CCN[*:3])[*:1])[*:2]].F.T.[am]}$PEPTIDE1,PEPTIDE1,2:R3-6:R3$$$V2.0), for which, on SSTR-2, the IC50 was more than 10000 nM. Regarding `C[C@@H](O)[C@H](NC(=O)CN1CCNC(=O)CCN(C(=O)[C@H](N)Cc2ccccc2)CC(=O)N[C@@H](Cc2ccccc2)C(=O)N[C@H](Cc2c[nH]c3ccccc23)C(=O)N[C@@H](CCCCN)C(=O)N[C@@H]([C@@H](C)O)C1=O)C(N)=O` [PTR 3002] (HELM PEPTIDE1{[dF].[O=C(CN(CCC(=O)[*:3])[*:1])[*:2]].F.[dW].K.T.[O=C(CN(CCN[*:3])[*:1])[*:2]].T.[am]}$PEPTIDE1,PEPTIDE1,2:R3-7:R3$$$V2.0), the “in vitro biostability (peptide degradation as a function of time)” value in data set [3] was “as stable as Octreotide, is more stable than the corresponding non-cyclic structure, and is much more stable than SRIF”.
